Test results: patent publication US8278326B2, “Inhibitors of protein phosphatase-1 and uses thereof” (Howard University, priority 2008, dated 2012)

Key:
HIV-1 transcription [1] = experiment: Inhibition of Tat-induced HIV-1 transcription in Ad-Tat-infected CEM GFP reporter cells; assay type: cell-based; conditions: for inhibition of HIV-1 transcription in CEM cells: CEM T-cells, 1H4-based library, in words
Procedure: (§1) Identification of the inhibitory compounds: The library was analyzed for the inhibition of HIV-1 transcription using reporter CEM GFP cells (courtesy of AIDS Reagents Program, NIH) that were infected with adenovirus expressing HIV-1 Tat activator protein (Ad-Tat) as previously described (Nekhai et al., 2007). Infection of CEM-GFP cells with Adeno-Tat induced HIV-1 transcription that was measured as gain of GFP fluorescence (Nekhai et al., 2007). Compounds were added at 25 μM concentration to the Ad-Tat-infected CEM-GFP cells and incubated for 24-48 hours. Cytotoxicity was evaluated by the uptake of propidium iodide (PI).

HIV-1 IIIB = experiment: Inhibition of HIV-1 replication, IIIB (Table 6); assay type: cell-based; conditions: for inhibition of HIV-1 replication: Table 6 (IIIB, Q148R, N155H); for IC50: read-out: IIIB, IC50, HIV-1 replication
Procedure: (§2) Compounds 1H4, 1E07, B03 and as a control 1G3 were analyzed for inhibition of HIV-1 replication and results are shown in Table 6.

recombinant pNL4-3 HIV-1 = experiment: HIV-1 replication in MT4 cells infected with recombinant pNL4-3 HIV-1; assay type: cell-based; conditions: for inhibition of HIV-1 replication: MT4 cells, 1H4 at 10 μM or 25 μM (FIG. 2)
Procedure: HIV-1 replication is inhibited by a small molecular mimetic of QVCF peptide. The 1H4 compound was evaluated to determine whether it could inhibit HIV-1 replication. MT4 cells were infected with recombinant pNL4-3 HIV-1 and treated with different concentrations of 1H4 compound and as a control 1G3 compound.

PP1 = experiment: Tat-PP1 competition assay (PP1 activity); assay type: biochemical; conditions: for effect on Tat-mediated inhibition of PP1: 50 μM compound, 4 nM PP1, glycylglycine buffer (FIG. 3A)
Procedure: (§3) Competition assays were performed with 4 nM PP1 in glycylglycine buffer. […] To analyze if 1H4 compound has an effect on the activity of CDK2 we incubated recombinant CDK2/cyclin E with histone H1 without or with the addition of increasing concentrations of 1H4.

[2] = molecular target: recombinant CDK2/cyclin E (Homo sapiens, UniProt P24941); experiment: CDK2/cyclin E activity with histone H1; assay type: biochemical; conditions: increasing concentrations; histone H1 substrate
Procedure: as §3

HIV-1 Q148R = experiment: Inhibition of HIV-1 replication, Q148R (Table 6); assay type: cell-based; conditions: read-out: Q148R, IC50
Procedure: as §2

HIV-1 transcription [3] = experiment: Inhibition of transcription, FIG. 1A (293T cells transfected with Tat- and HIV-1 LTR-LacZ); assay type: cell-based
Procedure: (§4) The compounds from Table 2 were further evaluated using 293T cells transfected with Tat- and HIV-1 LTR-LacZ. […] Compounds 1H4, 3C8, and 1G3 were further evaluated in 293T cells transfected with Tat-expressing vector, HIV-1 LTR-LacZ reporter and CMV-EGFP reporter. Inhibitory properties of these compounds were evaluated using 293T cells transfected with Tat-expressing vector, HIV-1 LTR-LacZ reporter and CMV-EGFP reporter (Ammosova et al., 2005a). 293T cells were transfected with lipofectamine and then treated with each of the selected compounds for 18 hours. Then the cells were lysed and GFP and β-galactosidase activity was determined as we previously described (Ammosova et al., 2005a). Compound 1H4 was the most inhibitory with IC50=5 μM (FIG. 1B). […] Neither of the compounds was cytotoxic as determined by LDH assay (not shown).

HIV-1 N155H = experiment: Inhibition of HIV-1 replication, N155H (Table 6); assay type: cell-based; conditions: read-out: N155H, IC50
Procedure: as §2

293T cells = experiment: Measurements of cytotoxicity, FIG. 1A; assay type: cell-based
Procedure: as §4

[4] = test system: Tat-induced HIV-1 transcription; experiment: Inhibition of Tat-induced HIV-1 transcription in 293T cells transfected with Tat-expressing vector, HIV-1 LTR-LacZ reporter and CMV-EGFP reporter; assay type: cell-based; conditions: for inhibition of Tat-induced HIV-1 transcription in 293T cells: in words
Procedure: as §4

CEM GFP cells = experiment: Cytotoxicity in CEM cells by uptake of propidium iodide; assay type: cell-based; conditions: 1H4-based library
Procedure: as §1
Identification of addition inhibitors. The 1H4 compound was used to create a second library of compounds that would have similar backbone as 1H4. This second library contained 143 compounds. These compounds were analyzed for the inhibition of HIV-1 transcription and toxicity in CEM T-cells and 293T cells similar as described above for the analysis of the first library.

| Molecule | inhibition of HIV-1 replication (HIV-1 IIIB) | IC50 (HIV-1 IIIB) [µM] | IC50 (HIV-1 Q148R) [µM] | IC50 (HIV-1 N155H) [µM] | inhibition of Tat-induced HIV-1 transcription in 293T cells [4] | further results |
| --- | --- | --- | --- | --- | --- | --- |
| CC(OC(=O)c1c2c(nc3ccccc13)/C(=C/c1ccc(Cl)cc1)CC2)C(=O)NC(N)=O (centres unmarked) |  |  |  |  |  | inhibition of HIV-1 transcription (HIV-1 transcription [1]; cell line not stated, appeared to increase the rate of transcription instead): ineffective for inhibition of HIV-1 transcription |
| COc1ccc(C(CNC(=O)CN2CCc3ccccc3C2)c2c[nH]c3ccccc23)cc1 (centres unmarked) [1H4] | inhibited HIV-1 replication | 9.4 | 4.7 | 8 |  | inhibition of HIV-1 replication (recombinant pNL4-3 HIV-1): inhibited HIV-1 replication; effect on Tat-mediated inhibition of PP1 (PP1): relieved Tat-mediated inhibition of PP1; effect on the activity of CDK2 [2]: did not have a significant effect; inhibition of HIV-1 transcription (FIG. 1A) (HIV-1 transcription [3]): inhibited HIV-1 transcription; cytotoxicity (FIG. 1A) (293T cells): not toxic; IC50 ([4]; Human immunodeficiency virus 1, HEK-293T, read-out: Transcription inh. in 293T cells (IC-50)): 5 µM |
| COc1ccc(C(CNC(=O)CN2CCc3ccccc3C2)c2c[nH]c3ccccc23)cc1 (centres unmarked) [1G3, reference compound] |  | 37 | 42 | 59 |  | induction of HIV-1 replication (recombinant pNL4-3 HIV-1; MT4 cells (FIG. 2)): about 2 fold; inhibition of HIV-1 replication (recombinant pNL4-3 HIV-1): did not inhibit HIV-1 replication; effect on Tat-mediated inhibition of PP1 (PP1): did not affect Tat-mediated inhibition of PP1; inhibition of HIV-1 transcription (FIG. 1A) (HIV-1 transcription [3]): neither inhibitory nor toxic; cytotoxicity (FIG. 1A) (293T cells): neither inhibitory nor toxic |
| COc1ccc(C(CNC(=O)CN2CCc3ccccc3C2)c2c[nH]c3ccccc23)cc1 (centres unmarked) [2F02] |  |  |  |  | inhibited HIV-1 transcription | inhibition of HIV-1 transcription in CEM cells (HIV-1 transcription [1]): inhibited HIV-1 transcription |
| COc1ccc(C(CNC(=O)CN2CCc3ccccc3C2)c2c[nH]c3ccccc23)cc1 (centres unmarked) [B03] | not inhibitory |  |  |  | inhibitory |  |
| COc1ccc(C(CNC(=O)CN2CCc3ccccc3C2)c2c[nH]c3ccccc23)cc1 (centres unmarked) [1E07] | inhibited HIV-1 replication | 2.5 | 1.5 | 3.2 | inhibited HIV-1 transcription | inhibition of HIV-1 transcription in CEM cells (HIV-1 transcription [1]): inhibited HIV-1 transcription; toxicity in the propidium iodide uptake assay (CEM GFP cells): not toxic |
| COc1ccc(C(CNC(=O)CN2CCc3ccccc3C2)c2c[nH]c3ccccc23)cc1 (centres unmarked) [E06] |  |  |  |  | inhibitory |  |
| Tat: HIV-1 Tat protein that binds to the RVxF pocket of PP1 (protein, UniProt P04608 1-86, looked up) Protein Tat: MEPVDPRLEPWKHPGSQPKTACTNCYCKKCCFHCQVCFITKALGISYGRKKRRQRRRAHQNSQTHQASLSKQPTSQPRGDPTGPKE |  |  |  |  |  | inhibition of PP1 (PP1; excess of Tat protein, 4 nM PP1 (FIG. 3A)): inhibited PP1 |
